What was measured:
[1] = target: human Cereblon WT GST-tagged protein (Homo sapiens (Human), UniProt Q96SW2); test: CRBN-binding affinity, HTRF (CEREBLON BINDING kit, CISBIO); details: HTRF inhibitory activity
Summary of the method: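 Compounds were mixed with GST-tagged human Cereblon WT protein, then with Thalidomide-Red tracer and GST Eu antibody, and binding was read by HTRF. Inhibition rate was calculated from 620 nm emission relative to blank control wells (no protein) and solvent control wells.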

[2] = tested on: CCRF-CEM (human acute lymphoblastic leukemia T-cells); test: Tumor cell proliferation inhibition, CCK-8; type: cell-based; details: CCRF-CEM cells, CCK-8, read-out: inhibitory activity (IC50, nM) CCRF-CEM
Procedure: (§1) The tumor cells used herein were cultured in a cell culture medium listed in table 2 at 37° C. in an incubator with 5% CO2. Prior to experimentation, all cells used were correctly identified by STR profiling, and tested negative for mycoplasma through routine screenings.
(§2) IC50 values of the compounds of the present disclosure (including the compounds in Table 1 and the Examples 1-305 compounds) were measured using the Meilun Cell Counting Kit-8 kit from Dalian Meilun Biotech Co., Ltd. Assay details are as follows: tumor cells were seeded in a 96-well plate at a density listed in Table 5. After 24 h, 100 μL of the inoculated cells were treated with 0.5 μL of the compounds of the present disclosure (including the compounds in Table 1 and the Examples 1-305 compounds) at 10 different successively decreasing concentrations (starting at the highest concentration of 10 μM; 5-fold serial dilutions). After the cells were treated with the compounds of the present disclosure for a period of time, the cell viability detection reagent was added to the culture medium for cell viability assessment according to the instructions provided with the CCK-8 kit. […] The growth inhibition of the compounds of the present disclosure on cells was plotted by Prism Graphpad software, and the IC50 values of the compounds of the present disclosure were calculated therefrom.

IKZF1 = IKZF1 (Homo sapiens (Human), UniProt Q13422+Q96SW2); test: Western blot, substrate protein expression in hPBMC: IKZF1; type: cell-based; details: hPBMC, compound 500 nM, 24 hours, Western blot
Summary of the method: (§3)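 hPBMC, 1×10^6 cells/mL, 24 h compound exposure; RIPA lysis, BCA protein assay, SDS-PAGE, NC membrane immunoblot. Densitometry vs internal control → % protein remaining; degradation % = 100% − remaining; DC50 = conc. at 50% of DMSO band signal.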

IKZF3 = IKZF3 (Homo sapiens (Human), UniProt Q96SW2+Q9UKT9); test: Western blot, substrate protein expression in hPBMC: IKZF3; type: cell-based; details: hPBMC, compound 500 nM, 24 hours, Western blot
Summary of the method: as §3

GSPT1 = GSPT1 (Homo sapiens (Human), UniProt P15170+Q96SW2); test: Western blot, substrate protein expression in hPBMC: GSPT1; type: cell-based; details: hPBMC, compound 500 nM, 24 hours, Western blot
Summary of the method: as §3

[3] = tested on: CAL-62 (human thyroid carcinoma cells); test: Tumor cell proliferation inhibition, CCK-8; type: cell-based; details: CAL-62 cells, CCK-8, read-out: inhibitory activity (IC50, nM) CAL-62
Procedure: as §1, §2

[4] = tested on: Jurkat cells (human T-cell leukemia cells); test: Tumor cell proliferation inhibition, CCK-8; type: cell-based; details: Jurkat cells, CCK-8, read-out: inhibitory activity (IC50, nM) Jurkat
Procedure: as §1, §2

[5] = tested on: MM.1S cells (human multiple myeloma cells); test: Tumor cell proliferation inhibition, CCK-8; type: cell-based; details: MM1.S, MM.1S cells, CCK-8, read-out: inhibitory activity (IC50, nM) MM.1S
Procedure: as §1, §2

[6] = tested on: TMD8 cells (human diffuse large B-cell lymphoma cells); test: Tumor cell proliferation inhibition, CCK-8; type: cell-based; details: TMD8 cells, CCK-8, read-out: inhibitory activity (IC50, nM) TMD8
Procedure: as §1, §2

[7] = tested on: H146 cells (human small cell lung carcinoma cells); test: Tumor cell proliferation inhibition, CCK-8; type: cell-based; details: NCI-H146, H146 cells, CCK-8, read-out: inhibitory activity (IC50, nM) H146
Procedure: as §1, §2

[8] = tested on: MDA-MB-231 cells (human breast adenocarcinoma cells); test: Tumor cell proliferation inhibition, CCK-8; type: cell-based; details: MDA-MB-231 cells, CCK-8, read-out: inhibitory activity (IC50, nM) MDA-MB-231
Procedure: as §1, §2

IKZF1, sequence (Q13422 whole entry): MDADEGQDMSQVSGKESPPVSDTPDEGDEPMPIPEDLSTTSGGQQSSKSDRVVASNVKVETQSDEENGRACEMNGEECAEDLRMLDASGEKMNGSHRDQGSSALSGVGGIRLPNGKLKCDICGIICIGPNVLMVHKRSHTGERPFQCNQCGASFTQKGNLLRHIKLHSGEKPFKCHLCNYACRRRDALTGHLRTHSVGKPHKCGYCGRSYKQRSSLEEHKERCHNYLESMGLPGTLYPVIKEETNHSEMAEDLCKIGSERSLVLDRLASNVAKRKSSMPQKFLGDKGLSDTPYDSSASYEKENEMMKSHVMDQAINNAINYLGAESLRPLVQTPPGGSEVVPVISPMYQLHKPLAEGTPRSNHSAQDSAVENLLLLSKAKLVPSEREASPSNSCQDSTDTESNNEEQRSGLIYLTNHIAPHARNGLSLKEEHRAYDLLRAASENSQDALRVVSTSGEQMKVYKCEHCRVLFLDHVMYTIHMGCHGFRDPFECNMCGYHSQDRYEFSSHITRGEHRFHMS
IKZF1, sequence (Q96SW2 whole entry): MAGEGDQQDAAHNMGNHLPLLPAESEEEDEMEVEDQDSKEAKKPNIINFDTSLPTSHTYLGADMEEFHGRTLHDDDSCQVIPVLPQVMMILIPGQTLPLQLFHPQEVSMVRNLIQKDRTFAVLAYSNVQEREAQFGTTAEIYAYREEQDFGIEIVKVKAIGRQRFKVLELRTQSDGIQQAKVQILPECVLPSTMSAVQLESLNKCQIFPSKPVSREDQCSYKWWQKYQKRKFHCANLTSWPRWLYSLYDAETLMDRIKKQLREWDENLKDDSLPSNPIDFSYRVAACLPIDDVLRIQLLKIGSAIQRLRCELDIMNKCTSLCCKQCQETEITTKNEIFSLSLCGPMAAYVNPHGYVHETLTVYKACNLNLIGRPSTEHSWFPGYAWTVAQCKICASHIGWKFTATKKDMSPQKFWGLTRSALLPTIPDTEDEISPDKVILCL
IKZF1, sequence (Q16531 whole entry partner): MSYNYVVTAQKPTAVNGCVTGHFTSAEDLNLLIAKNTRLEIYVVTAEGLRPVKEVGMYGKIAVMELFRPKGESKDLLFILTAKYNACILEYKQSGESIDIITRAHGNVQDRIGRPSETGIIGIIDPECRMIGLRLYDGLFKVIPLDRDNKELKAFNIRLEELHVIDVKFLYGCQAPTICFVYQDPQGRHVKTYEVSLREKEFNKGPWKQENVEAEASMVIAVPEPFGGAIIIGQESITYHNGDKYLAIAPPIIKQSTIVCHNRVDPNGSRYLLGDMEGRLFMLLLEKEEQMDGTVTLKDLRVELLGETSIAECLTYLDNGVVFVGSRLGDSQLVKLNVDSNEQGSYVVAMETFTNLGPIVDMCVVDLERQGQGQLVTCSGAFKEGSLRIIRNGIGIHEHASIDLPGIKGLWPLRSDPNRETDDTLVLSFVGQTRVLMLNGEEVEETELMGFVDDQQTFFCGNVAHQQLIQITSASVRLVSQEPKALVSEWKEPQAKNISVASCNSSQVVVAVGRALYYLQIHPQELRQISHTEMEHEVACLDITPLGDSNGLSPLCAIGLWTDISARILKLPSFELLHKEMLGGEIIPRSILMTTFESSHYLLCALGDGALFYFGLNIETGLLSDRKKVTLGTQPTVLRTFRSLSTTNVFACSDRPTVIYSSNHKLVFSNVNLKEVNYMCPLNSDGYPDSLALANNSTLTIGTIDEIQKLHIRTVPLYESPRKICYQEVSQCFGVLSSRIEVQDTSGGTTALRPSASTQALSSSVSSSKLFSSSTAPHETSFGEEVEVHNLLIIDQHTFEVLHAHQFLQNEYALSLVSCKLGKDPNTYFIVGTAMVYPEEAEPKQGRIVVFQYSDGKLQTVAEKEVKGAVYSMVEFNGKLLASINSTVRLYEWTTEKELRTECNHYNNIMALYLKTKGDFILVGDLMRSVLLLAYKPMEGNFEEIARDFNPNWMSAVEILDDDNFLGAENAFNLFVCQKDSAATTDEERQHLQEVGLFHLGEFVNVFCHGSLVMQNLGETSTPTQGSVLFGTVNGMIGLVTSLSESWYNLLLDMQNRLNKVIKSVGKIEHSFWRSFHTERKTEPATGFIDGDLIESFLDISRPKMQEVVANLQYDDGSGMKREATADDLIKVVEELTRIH
IKZF3, sequence (Q9UKT9 whole entry): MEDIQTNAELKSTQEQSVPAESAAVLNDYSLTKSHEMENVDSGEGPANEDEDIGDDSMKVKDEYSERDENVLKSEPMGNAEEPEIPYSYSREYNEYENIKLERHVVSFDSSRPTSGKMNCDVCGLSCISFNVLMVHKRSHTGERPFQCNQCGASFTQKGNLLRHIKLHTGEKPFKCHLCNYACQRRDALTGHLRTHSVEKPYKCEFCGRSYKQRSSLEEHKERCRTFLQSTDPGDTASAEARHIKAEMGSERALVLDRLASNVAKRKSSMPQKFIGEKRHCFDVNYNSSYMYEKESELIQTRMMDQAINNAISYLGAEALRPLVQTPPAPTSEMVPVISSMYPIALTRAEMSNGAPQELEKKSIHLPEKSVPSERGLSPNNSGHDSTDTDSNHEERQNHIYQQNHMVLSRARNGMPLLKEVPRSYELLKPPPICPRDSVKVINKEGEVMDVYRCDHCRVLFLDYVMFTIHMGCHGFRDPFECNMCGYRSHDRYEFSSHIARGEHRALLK
IKZF3, sequence (Q96SW2 whole entry): as the sequence (Q96SW2 whole entry) above
IKZF3, sequence (Q16531 whole entry partner): as the sequence (Q16531 whole entry partner) above
human Cereblon WT GST-tagged protein, sequence (Q96SW2 whole entry): as the sequence (Q96SW2 whole entry) above
GSPT1, sequence (P15170 whole entry): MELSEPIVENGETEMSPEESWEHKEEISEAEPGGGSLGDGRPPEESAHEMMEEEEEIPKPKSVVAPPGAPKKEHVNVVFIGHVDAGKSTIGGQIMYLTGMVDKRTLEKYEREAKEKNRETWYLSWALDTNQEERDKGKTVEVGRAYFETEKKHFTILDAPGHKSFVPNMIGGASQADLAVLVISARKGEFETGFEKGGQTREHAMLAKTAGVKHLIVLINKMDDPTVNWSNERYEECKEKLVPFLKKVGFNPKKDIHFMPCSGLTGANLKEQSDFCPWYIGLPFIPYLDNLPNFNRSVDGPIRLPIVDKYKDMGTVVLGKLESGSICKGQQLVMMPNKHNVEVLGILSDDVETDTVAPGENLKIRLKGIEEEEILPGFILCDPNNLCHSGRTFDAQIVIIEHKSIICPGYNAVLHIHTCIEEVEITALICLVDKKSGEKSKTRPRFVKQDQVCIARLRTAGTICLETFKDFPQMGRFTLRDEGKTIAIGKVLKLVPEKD
GSPT1, sequence (Q96SW2 whole entry): as the sequence (Q96SW2 whole entry) above
GSPT1, sequence (Q16531 whole entry partner): as the sequence (Q16531 whole entry partner) above

Structure (SMILES) | IC50 [1] | IC50 [2] | IC50 [3] | IC50 [5] | IC50 [6] | substrate protein remaining % IKZF1 (IKZF1) | substrate protein remaining % IKZF3 (IKZF3) | substrate protein remaining % GSPT1 (GSPT1) | IC50 [4] | IC50 [7] | IC50 [8]
O=C1CCC(N2Cc3cc(CN4C5CCC4CN(C(c4ccccc4)c4ccccc4)C5)cc(F)c3C2=O)C(=O)N1 (centres unmarked) [GT-03840, 3-(5-((3-benzhydryl-3,8-diazabicyclo[3.2.1]octan-8-yl)methyl)-7-fluoro-1-oxoisoindolin-2-yl)piperidine-2,6-dione] | 1000 to 1900 nM | 10 to 50 nM | – | – | – | – | – | – | – | – | –
O=C1CCC(N2Cc3cc(CN4CCN(C(c5ccccc5)c5ccncc5)CC4)ccc3C2=O)C(=O)N1 (centres unmarked) [GT-04205, 3-(1-oxo-5-((4-(phenyl(pyridin-4-yl)methyl)piperazin-1-yl)methyl)isoindolin-2-yl)piperidine-2,6-dione] | < 500 nM | 50 to 100 nM | 10 to 50 nM | 100 to 500 nM | 50 to 100 nM | A (A represents 0% ≤ substrate protein remaining % ≤ 50%) | A (A represents 0% ≤ substrate protein remaining % ≤ 50%) | A (A represents 0% ≤ substrate protein remaining % ≤ 50%) | 500 to 1000 nM | – | –
O=C1CCC(N2Cc3cc(CN4CCC(N(c5ccccc5)c5ccccc5)CC4)ccc3C2=O)C(=O)N1 (centres unmarked) [GT-04225, 3-(5-((4-(diphenylamino)piperidin-1-yl)methyl)-1-oxoisoindolin-2-yl)piperidine-2,6-dione] | < 500 nM | < 1 nM | < 1 nM | < 1 nM | 1 to 10 nM | A (A represents 0% ≤ substrate protein remaining % ≤ 50%) | A (A represents 0% ≤ substrate protein remaining % ≤ 50%) | A (A represents 0% ≤ substrate protein remaining % ≤ 50%) | < 1 nM | 1 to 10 nM | 1 to 10 nM
O=C1CCC(N2Cc3c(ccc(CN4CCC(N(c5ccccc5)c5ccccc5)CC4)c3F)C2=O)C(=O)N1 (centres unmarked) [GT-04226, 3-(5-((4-(diphenylamino)piperidin-1-yl)methyl)-4-fluoro-1-oxoisoindolin-2-yl)piperidine-2,6-dione] | < 500 nM | < 1 nM | < 1 nM | < 1 nM | 1 to 10 nM | A (A represents 0% ≤ substrate protein remaining % ≤ 50%) | A (A represents 0% ≤ substrate protein remaining % ≤ 50%) | A (A represents 0% ≤ substrate protein remaining % ≤ 50%) | < 1 nM | 1 to 10 nM | 1 to 10 nM
O=C1CCC(N2Cc3cc(CN4CCC(N(c5ccccc5)c5ccccc5)CC4)c(F)cc3C2=O)C(=O)N1 (centres unmarked) [GT-04227, 3-(5-((4-(diphenylamino)piperidin-1-yl)methyl)-6-fluoro-1-oxoisoindolin-2-yl)piperidine-2,6-dione] | 500 to 1000 nM | < 1 nM | < 1 nM | < 1 nM | 1 to 10 nM | A (A represents 0% ≤ substrate protein remaining % ≤ 50%) | A (A represents 0% ≤ substrate protein remaining % ≤ 50%) | A (A represents 0% ≤ substrate protein remaining % ≤ 50%) | < 1 nM | 1 to 10 nM | 1 to 10 nM
O=C1CCC(N2Cc3c(ccc(CN4CCN(C(c5ccccc5)c5ccncc5)CC4)c3F)C2=O)C(=O)N1 (centres unmarked) [GT-04247, 3-(4-fluoro-1-oxo-5-((4-(phenyl(pyridin-4-yl)methyl)piperazin-1-yl)methyl)isoindolin-2-yl)piperidine-2,6-dione] | < 500 nM | 50 to 100 nM | 50 to 100 nM | 100 to 500 nM | – | A (A represents 0% ≤ substrate protein remaining % ≤ 50%) | A (A represents 0% ≤ substrate protein remaining % ≤ 50%) | A (A represents 0% ≤ substrate protein remaining % ≤ 50%) | – | – | –

Further lines, with some results ahead:

IC50 [1] | IC50 [2] | IC50 [3] | IC50 [5] | IC50 [6] | Structure (SMILES) | substrate protein remaining % IKZF1 (IKZF1) | substrate protein remaining % IKZF3 (IKZF3) | substrate protein remaining % GSPT1 (GSPT1) | IC50 [4] | IC50 [7] | IC50 [8]
500 to 1000 nM | 10 to 50 nM | 10 to 50 nM | 50 to 100 nM | – | O=C1CCC(N2Cc3cc(CN4CCN(C(c5ccccc5)c5ccncc5)CC4)c(F)cc3C2=O)C(=O)N1 (centres unmarked) [GT-04248, 3-(6-fluoro-1-oxo-5-((4-(phenyl(pyridin-4-yl)methyl)piperazin-1-yl)methyl)isoindolin-2-yl)piperidine-2,6-dione] | A (A represents 0% ≤ substrate protein remaining % ≤ 50%) | B (B represents substrate protein remaining % > 50%) | A (A represents 0% ≤ substrate protein remaining % ≤ 50%) | 50 to 100 nM | 100 to 500 nM | 100 to 500 nM
< 500 nM | 10 to 50 nM | 10 to 50 nM | 500 to 1000 nM | 100 to 500 nM | O=C1CCC(N2Cc3cc(CN4CCN(C(c5ccccc5)c5cccnc5)CC4)ccc3C2=O)C(=O)N1 (centres unmarked) [GT-04249, 3-(1-oxo-5-((4-(phenyl(pyridin-3-yl)methyl)piperazin-1-yl)methyl)isoindolin-2-yl)piperidine-2,6-dione] | A (A represents 0% ≤ substrate protein remaining % ≤ 50%) | A (A represents 0% ≤ substrate protein remaining % ≤ 50%) | A (A represents 0% ≤ substrate protein remaining % ≤ 50%) | – | – | –
< 500 nM | 50 to 100 nM | 50 to 100 nM | 100 to 500 nM | – | O=C1CCC(N2Cc3c(ccc(CN4CCN(C(c5ccccc5)c5cccnc5)CC4)c3F)C2=O)C(=O)N1 (centres unmarked) [GT-04250, 3-(4-fluoro-1-oxo-5-((4-(phenyl(pyridin-3-yl)methyl)piperazin-1-yl)methyl)isoindolin-2-yl)piperidine-2,6-dione] | A (A represents 0% ≤ substrate protein remaining % ≤ 50%) | A (A represents 0% ≤ substrate protein remaining % ≤ 50%) | A (A represents 0% ≤ substrate protein remaining % ≤ 50%) | – | – | –
1000 to 1900 nM | – | – | < 1 nM | 1 to 10 nM | O=C1CCC(N2Cc3cc(CN4CCN(C(c5cc(F)cc(F)c5)c5cc(F)cc(F)c5)CC4)ccc3C2=O)C(=O)N1 (centres unmarked) [GT-06387, 3-(5-((4-(bis(3,5-difluorophenyl)methyl)piperazin-1-yl)methyl)-1-oxoisoindolin-2-yl)piperidine-2,6-dione] | B (B represents substrate protein remaining % > 50%) | A (A represents 0% ≤ substrate protein remaining % ≤ 50%) | A (A represents 0% ≤ substrate protein remaining % ≤ 50%) | – | 1 to 10 nM | 1 to 10 nM
500 to 1000 nM | – | – | 10 to 50 nM | 100 to 500 nM | O=C1CCC(N2Cc3cc(C(=O)N4CCN(C(c5cc(F)cc(F)c5)c5cc(F)cc(F)c5)CC4)ccc3C2=O)C(=O)N1 (centres unmarked) [GT-06597, 3-(5-(4-(bis(3,5-difluorophenyl)methyl)piperazine-1-carbonyl)-1-oxoisoindolin-2-yl)piperidine-2,6-dione] | A (A represents 0% ≤ substrate protein remaining % ≤ 50%) | A (A represents 0% ≤ substrate protein remaining % ≤ 50%) | A (A represents 0% ≤ substrate protein remaining % ≤ 50%) | – | 10 to 50 nM | 50 to 100 nM
